Active and inactive are the calls of the source. No cut-off for these calls is given here.
Experiments:
[1] = Oral bioavailability in Wistar rat at 10 mg/kg by LC-MS/MS analysis; assay type: ADME, organism-based; conditions: in vivo
[2] = test system: Liver microsomes; test: Drug metabolism in rat liver microsomes; assay type: ADME, Microsome
[3] = Plasma concentration in Wistar rat at 10 mg/kg, po after 4 hrs by LC-MS/MS analysis; assay type: ADME, organism-based; parameters: dose 10 mg/kg, route oral
[4] = biological target: T1, Inhibitor of nuclear factor kappa-B kinase subunit beta (Homo sapiens) (UniProt O14920); test: Activity at IKKbeta (unknown origin)
T1 sequence (whole entry): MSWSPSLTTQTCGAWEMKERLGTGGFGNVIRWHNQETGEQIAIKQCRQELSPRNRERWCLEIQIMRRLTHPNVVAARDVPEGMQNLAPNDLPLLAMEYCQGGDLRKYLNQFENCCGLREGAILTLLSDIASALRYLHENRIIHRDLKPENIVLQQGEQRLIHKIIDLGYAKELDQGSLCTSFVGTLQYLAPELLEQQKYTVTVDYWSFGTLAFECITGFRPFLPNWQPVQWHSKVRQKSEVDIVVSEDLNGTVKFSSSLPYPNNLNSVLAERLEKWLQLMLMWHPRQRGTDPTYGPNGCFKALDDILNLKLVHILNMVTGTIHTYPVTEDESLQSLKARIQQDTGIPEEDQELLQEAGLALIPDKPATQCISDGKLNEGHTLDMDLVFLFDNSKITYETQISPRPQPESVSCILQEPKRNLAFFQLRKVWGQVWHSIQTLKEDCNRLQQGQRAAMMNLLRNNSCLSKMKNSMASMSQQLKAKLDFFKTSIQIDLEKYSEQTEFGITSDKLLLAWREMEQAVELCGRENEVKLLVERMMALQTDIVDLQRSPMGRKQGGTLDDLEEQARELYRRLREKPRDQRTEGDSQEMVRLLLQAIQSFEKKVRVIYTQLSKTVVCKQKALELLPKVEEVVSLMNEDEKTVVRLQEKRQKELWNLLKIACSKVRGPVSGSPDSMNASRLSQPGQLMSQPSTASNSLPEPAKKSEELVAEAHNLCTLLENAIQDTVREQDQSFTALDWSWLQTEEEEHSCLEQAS

[5] = biological target: T2, Aurora kinase A (Homo sapiens) (UniProt O14965); test: Activity at Aurora A (unknown origin)
T2 sequence (whole entry): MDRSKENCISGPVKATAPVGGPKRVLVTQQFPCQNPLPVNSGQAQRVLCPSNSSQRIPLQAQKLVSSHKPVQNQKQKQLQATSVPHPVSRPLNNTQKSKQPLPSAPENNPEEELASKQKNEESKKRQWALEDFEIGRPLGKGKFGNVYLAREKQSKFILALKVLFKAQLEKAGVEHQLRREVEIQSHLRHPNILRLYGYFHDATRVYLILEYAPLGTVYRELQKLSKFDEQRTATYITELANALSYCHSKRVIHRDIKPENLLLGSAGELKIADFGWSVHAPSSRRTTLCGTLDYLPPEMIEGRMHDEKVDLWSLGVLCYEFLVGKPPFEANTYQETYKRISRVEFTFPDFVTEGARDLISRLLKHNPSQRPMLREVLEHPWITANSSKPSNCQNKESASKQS

[6] = biological target: Cytochrome P450 2D6 (Homo sapiens, UniProt P10635); test: Inhibition of CYP2D6 (unknown origin); assay type: ADME
Chain of Cytochrome P450 2D6 (P10635 whole entry): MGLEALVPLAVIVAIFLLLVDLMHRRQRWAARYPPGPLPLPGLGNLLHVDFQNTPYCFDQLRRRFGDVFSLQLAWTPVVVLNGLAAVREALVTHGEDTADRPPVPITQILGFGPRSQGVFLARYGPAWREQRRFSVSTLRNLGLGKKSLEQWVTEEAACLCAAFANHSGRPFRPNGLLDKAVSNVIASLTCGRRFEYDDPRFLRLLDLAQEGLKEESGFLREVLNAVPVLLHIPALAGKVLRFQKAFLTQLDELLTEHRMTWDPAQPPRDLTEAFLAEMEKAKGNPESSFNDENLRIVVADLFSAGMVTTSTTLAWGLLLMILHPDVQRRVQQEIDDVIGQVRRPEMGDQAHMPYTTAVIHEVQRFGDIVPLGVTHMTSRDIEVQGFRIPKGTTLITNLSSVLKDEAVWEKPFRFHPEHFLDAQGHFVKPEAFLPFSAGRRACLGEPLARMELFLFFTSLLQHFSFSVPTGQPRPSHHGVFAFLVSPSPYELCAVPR

- bioavailability [1]: 33.7%
- Drug metabolism [2]: Not Active
- concentration at 4 h [3]: 3270 ng/mL
- Activity [4]: inactive
- Activity [5]: inactive
- inhibition (INH) [6]: Not Active
Compound: O=C(O)c1cccc(CN2C(=O)/C(=C(\c3ccccc3)c3ccc(Cl)cc3)c3ccccc32)c1

— ChEMBL document CHEMBL2384909, “Development of Novel Alkene Oxindole Derivatives As Orally Efficacious AMP-Activated Protein Kinase Activators” (ACS Med Chem Lett, 2013)
